Experimental data taken from patent publication US9771378B2 (Denali Therapeutics, Inc., priority 2014, dated 2017).

system: Aβ42 (human neuroglioma H4 cells expressing human wild type APP751); experiment: In vitro cell screening assay with sandwich ELISA quantification of Aβ42 peptide; type: cell-based; details: H4 cells stably expressing human wild type APP751; Pro293 chemically defined medium; compounds 0.003-10 μM; incubated overnight (16-18 h); supernatant Aβ42 by sandwich ELISA; normalized to DMSO and DAPT; read-out: Aβ42 H4 Prot Fre IC50
Outline: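 H4 neuroglioma cells stably expressing human wild-type APP751 were treated in Pro293 medium with compounds (0.003-10 μM, 0.33% DMSO) for 16-18 h at 37° C. Secreted Aβ42 measured by sandwich ELISA (C-terminal capture, 4G8-HRP detection, TMB, 450 nm). IC50 by variable-slope sigmoidal regression on percent of DMSO control.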

Row | SMILES | IC50 [nM]
1 | Cc1cn(-c2ccc(Nc3ncc4c(n3)N(C)C(c3ccc(Cl)cc3Cl)CO4)cc2F)cn1 (single isomer, unassigned; (-)) [Example 96B] | 879
2 | COc1cc(Nc2ncc3c(n2)N(C)C(c2cc(F)c(F)cc2F)CO3)ccc1-n1cnc(C)c1 (single isomer, unassigned; (-)) [Example 97A] | 244
3 | Cc1cn(-c2ccc(Nc3ncc4c(n3)N(C)C(c3cc(F)c(F)cc3F)CO4)cc2F)cn1 (single isomer, unassigned; (-)) [Example 98B] | 2100
4 | Cc1cn(-c2ccc(Nc3ncc4c(n3)N(C)C(c3ccc(F)cc3C(F)(F)F)CO4)cc2F)cn1 (single isomer, unassigned; (-)) [Example 99B] | 1040
5 | Cc1cn(-c2ccc(Nc3ncc4c(n3)N(C)C(c3cc(Cl)ccc3C(F)(F)F)CO4)cc2F)cn1 (single isomer, unassigned; (-)) [Example 100B] | 588
6 | Cc1cn(-c2ccc(Nc3ncc4c(n3)N(C)C(c3ccc(F)cc3Cl)CO4)cc2F)cn1 (single isomer, unassigned; (-)) [Example 101B] | 685
7 | Cc1cc(-c2ccc(Nc3ncc4c(n3)N(C)C(c3ccc(F)cc3Cl)CO4)cc2F)ccn1 (single isomer, unassigned; (-)) [Example 102B] | 1350
8 | COc1cc(Nc2ncc3c(n2)N(C)C(c2cc(F)c(F)cc2Cl)CO3)ccc1-n1cnc(C)c1 (single isomer, unassigned; (-)) [Example 103B] | 219
9 | Cc1cn(-c2ccc(Nc3ncc4c(n3)N(C)C(c3cc(F)ccc3C(F)(F)F)CO4)cc2F)cn1 (single isomer, unassigned; (-)) [Example 104A] | 526
10 | COc1cc(Nc2ncc3c(n2)N(C)C(c2cc(F)ccc2C(F)(F)F)CO3)ccc1-n1cnc(C)c1 (single isomer, unassigned; (-)) [Example 105A] | 88
11 | Cc1cn(-c2ccc(Nc3ncc4c(n3)N(C)C(c3ccc(Cl)cc3C(F)(F)F)CO4)cc2F)cn1 (single isomer, unassigned; (-)) [Example 106B] | 1020
12 | COc1cc(Nc2ncc3c(n2)N(C)C(c2ccc(Cl)cc2C(F)(F)F)CO3)ccc1-c1ccnc(C)c1 (single isomer, unassigned; (-)) [Example 107A] | 422
13 | Cc1cn(-c2ccc(Nc3ncc4c(n3)N(C)C(C)CO4)cc2F)cn1 (single isomer, unassigned; (-)) [Example 108A] | 567
14 | Cc1cn(-c2ccc(Nc3ncc4c(n3)N(C)C(C3CCOCC3)CO4)cc2F)cn1 (single isomer, unassigned; (-)) [Example 109B] | > 3000
15 | COc1cc(Nc2ncc3c(n2)N(C)C(C)CO3)ccc1-c1ccnc(C)c1 (single isomer, unassigned; (-)) [Example 110A] | 199
16 | COc1cc(Nc2ncc3c(n2)N(C)C(c2ccc(Cl)cc2C(F)(F)F)CO3)ccc1-n1cnc(C)c1 (single isomer, unassigned; (-)) [Example 112A] | 231
17 | COc1cc(Nc2ncc3c(n2)N(C)C(C2CCOCC2)CO3)ccc1-n1cnc(C)c1 (single isomer, unassigned; (-)) [Example 114A] | 494
18 | Cc1cn(-c2ccc(Nc3ncc4c(n3)N(C)C(c3cc(F)c(F)c(F)c3)CO4)cc2)cn1 (single isomer, unassigned; (-)) [Example 115A] | 2860
19 | COc1cc(Nc2ncc3c(n2)N(C)C(C)CO3)ccc1-n1cnc(C)c1 (single isomer, unassigned; (-)) [Example 116A] | 148
20 | COc1cc(Nc2ncc3c(n2)N(C)C(c2ccc(F)cc2C)CO3)ccc1-n1cnc(C)c1 (single isomer, unassigned; (-)) [Example 117A] | 140
21 | Cc1cn(-c2ccc(Nc3ncc4c(n3)N(C)C(c3cc(F)c(F)c(F)c3)CO4)cc2F)cn1 (single isomer, unassigned; (-)) [Example 118B] | 1340
22 | COc1cc(Nc2ncc3c(n2)N(C)C(c2cc(Cl)ccc2C(F)(F)F)CO3)ccc1-n1cnc(C)c1 (single isomer, unassigned; (-)) [Example 165B] | 79
23 | COc1ccc(Cl)c(C2COc3cnc(Nc4ccc(-n5cnc(C)c5)c(OC)c4)nc3N2C)c1 (single isomer, unassigned; (-)) [Example 167B] | 75
24 | COc1cc(Nc2ncc3c(n2)N(C)C(c2ccc(C(F)(F)F)cc2C(F)(F)F)CO3)ccc1-n1cnc(C)c1 (single isomer, unassigned; (-)) [Example 168A] | 566
25 | Cc1cn(-c2ccc(Nc3ncc4c(n3)N(C)C(c3cc(F)c(F)cc3Cl)CO4)cc2F)cn1 (single isomer, unassigned; (-)) [Example 169B] | 2260

Row | SMILES | IC50 [nM]
26 | COc1cc(Nc2ncc3c(n2)N(C)C(c2ccccc2C)CO3)cnc1-n1cnc(C)c1 (single isomer, unassigned; (-)) [Example 171B] | 67
27 | COc1cc(Nc2ncc3c(n2)N(C)C(CC(F)(F)F)CO3)ccc1-n1cnc(C)c1 (single isomer, unassigned; (-)) [Example 172A] | 207
28 | Cc1cn(-c2ccc(Nc3ncc4c(n3)N(C)C(c3cc(C(F)(F)F)ccc3Cl)CO4)cc2F)cn1 (single isomer, unassigned; (-)) [Example 173B] | 831
29 | COc1cc(Cl)c(C2COc3cnc(Nc4ccc(-n5cnc(C)c5)c(OC)c4)nc3N2C)cc1Cl (single isomer, unassigned; (-)) [Example 174A] | 150
30 | COc1ccc(C)c(C2COc3cnc(Nc4ccc(-n5cnc(C)c5)c(OC)c4)nc3N2C)c1 (single isomer, unassigned; (-)) [Example 175B] | 95
31 | COc1nc(Nc2ncc3c(n2)N(C)C(c2cc(F)cc(F)c2)CO3)ccc1-n1cnc(C)c1 (single isomer, unassigned; (-)) [Example 179A] | > 3000
32 | COc1nc(Nc2ncc3c(n2)N(C)C(c2ccccc2C)CO3)ccc1-n1cnc(C)c1 (single isomer, unassigned; (-)) [Example 180A] | > 3000
33 | COc1cc(Nc2ncc3c(n2)N(C)C(c2cc(F)c(F)cc2F)CO3)cnc1-n1cnc(C)c1 (single isomer, unassigned; (-)) [Example 181A] | 9
34 | COc1cc(Nc2ncc3c(n2)N(C)C(c2cc(F)c(F)c(F)c2)CO3)cnc1-n1cnc(C)c1 (single isomer, unassigned; (-)) [Example 182B] | 176
35 | COc1nc(Nc2ncc3c(n2)N(C)C(c2cc(F)cc(F)c2)CO3)ccc1-c1ccnc(C)n1 (single isomer, unassigned; (-)) [Example 183B] | > 3000
36 | COc1nc(Nc2ncc3c(n2)N(C)C(c2cc(F)cc(F)c2)CO3)ccc1-c1cnn(C)c1 (single isomer, unassigned; (-)) [Example 184A] | > 3000
37 | COc1cc(Nc2ncc3c(n2)N(C)C(C)CO3)cnc1-n1cnc(C)c1 (single isomer, unassigned; (-)) [Example 185B] | 540
38 | COc1cc(Nc2ncc3c(n2)N(C)C(c2ccc(F)cc2F)CO3)cnc1-n1cnc(C)c1 (single isomer, unassigned; (-)) [Example 186B] | 328
39 | COc1cc(Nc2ncc3c(n2)N(C)C(C(F)(F)F)CO3)ccc1-n1cnc(C)c1 (single isomer, unassigned; (-)) [Example 187B] | 33
40 | COc1nc(Nc2ncc3c(n2)N(C)C(c2cc(F)c(F)c(F)c2)CO3)ccc1-n1cnc(C)c1 (single isomer, unassigned; (-)) [Example 188A] | > 3000
41 | COc1cc(Nc2ncc3c(n2)N(C)C(c2cc(F)cc(F)c2)CO3)cnc1-n1cnc(C)c1 (single isomer, unassigned; (-)) [Example 189B] | 655
42 | Cc1cn(-c2ccc(Nc3ncc4c(n3)N(C)C(c3cc(F)cc(F)c3)CO4)nc2C#N)cn1 (single isomer, unassigned; (-)) [Example 192A, (−)-6-((7-(3,5-difluorophenyl)-8-methyl-7,8-dihydro-6H-pyrimido [5,4-b] [1, 4]oxazin-2-yl)amino)-3-(4-methyl-1H-imidazol-1-yl) picolinonitrile] | > 3000
43 | COc1cc(Nc2ncc3c(n2)N(C)C(C(F)(F)F)CO3)cnc1-n1cnc(C)c1 (single isomer, unassigned; (-)) [Example 193B] | 35
44 | Cc1cn(-c2ccc(Nc3ncc4c(n3)N(C)C(C)CO4)cn2)cn1 (single isomer, unassigned; (-)) [Example 194B] | > 3000
45 | COc1ccc(C2COc3cnc(Nc4ccc(-n5cnc(C)c5)c(OC)c4)nc3N2C)c(C)c1 (single isomer, unassigned; (-)) [Example 199B] | 95
46 | COc1cc(Nc2ncc3c(n2)N(C)C(C)CO3)ccc1-n1cnc(Cl)c1 (single isomer, unassigned; (-)) [Example 202A] | 167
47 | Cc1cn(-c2ccc(Nc3ncc4c(n3)N(C)C(c3cc(F)cc(F)c3)CO4)cc2C#N)cn1 (single isomer, unassigned; (-)) [Example 203B, (−)-5-((7-(3,5-difluorophenyl)-8-methyl-7,8-dihydro-6H-pyrimido [5,4-b] [1, 4]oxazin-2-yl)amino)-2-(4-methyl-1H-imidazol-1-yl) benzonitrile] | 210
48 | COc1cc(Nc2ncc3c(n2)N(C)C(c2cc(F)cc(F)c2)CO3)ccc1-n1cnc(Cl)c1 (single isomer, unassigned; (-)) [Example 204A] | 433
49 | Cc1cn(-c2ccc(Nc3ncc4c(n3)N(C)C(C)CO4)cc2C#N)cn1 (single isomer, unassigned; (-)) [Example 205B, (−)-5-((7,8-dimethyl-7,8-dihydro-6H-pyrimido [5,4-b] [1, 4]oxazin-2-yl)amino)-2-(4-methyl-1H-imidazol-1-yl) benzonitrile] | 259
50 | COc1cc(Nc2ncc3c(n2)N(C)C(c2cc(F)cc(F)c2)CO3)cnc1-n1cnc(C(F)(F)F)c1 (single isomer, unassigned; (-)) [Example 206B] | 704
